From PMC7816853, “Overexpression of the chloroplastic 2-oxoglutarate/malate transporter disturbs carbon and nitrogen homeostasis in rice” (Journal of Experimental Botany, 2020)

Biological target: T1, ZmOMT1 (Zea mays, UniProt Q768R5)
T1 construct: gene ZmpOMT1; full-length CDS with C-terminal AcV5 tag kept; expressed in transgenic rice (Oryza sativa indica IR64) leaf mesophyll; total leaf membrane protein reconstituted into liposomes; calculated ~60 kDa, 40 kDa on blot
T1 sequence (Q768R5 81-578): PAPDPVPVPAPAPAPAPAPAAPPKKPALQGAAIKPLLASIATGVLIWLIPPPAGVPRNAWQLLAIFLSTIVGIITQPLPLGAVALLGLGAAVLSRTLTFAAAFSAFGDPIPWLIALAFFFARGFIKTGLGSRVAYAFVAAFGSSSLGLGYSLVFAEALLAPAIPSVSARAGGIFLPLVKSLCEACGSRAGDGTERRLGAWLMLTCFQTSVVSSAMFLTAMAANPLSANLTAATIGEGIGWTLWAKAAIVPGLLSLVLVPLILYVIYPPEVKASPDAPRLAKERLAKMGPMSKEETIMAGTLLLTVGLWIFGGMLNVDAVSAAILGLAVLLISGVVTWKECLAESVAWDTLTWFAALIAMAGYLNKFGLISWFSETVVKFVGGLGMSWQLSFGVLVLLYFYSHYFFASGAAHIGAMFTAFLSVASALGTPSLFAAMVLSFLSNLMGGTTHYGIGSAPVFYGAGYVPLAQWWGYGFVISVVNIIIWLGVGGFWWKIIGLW
Assay: […]malate uptake into proteoliposomes, malate/malate counterexchange
Format: biochemical
Conditions: pH 7.5; 30 mM malate preloaded inside; 0.3 mM external [14C]malate; total leaf membrane protein of transgenic rice versus wild type (native rice transporters present); labelled compound

Structure (SMILES): O=C(O)C[C@H](O)C(=O)O [malate]
- [14C]malate uptake into proteoliposomes, malate/malate counterexchange: significantly higher malate–malate counterexchange activity in liposomes reconstituted with membrane proteins from overexpression lines
